Assay results from patent US10793538B2, “Cycloalkenyl hydroxamic acid derivatives and their use as histone deacetylase inhibitors” (The Broad Institute, Inc., priority 2012, dated 2020).

How the values were obtained:
Assay in all cases: HDAC isoform inhibition, microfluidic lab-on-a-chip (Caliper) assay
[1] = molecular target: T1, HDAC5 (Homo sapiens, UniProt Q9UQL6); format: biochemical; conditions: HDAC isoform 5; 2 μM FAM-labeled acetylated peptide substrate, 60 min, room temperature
T1 construct: purchased BPS Bioscience
T1 sequence (Q9UQL6 whole entry, canonical isoform): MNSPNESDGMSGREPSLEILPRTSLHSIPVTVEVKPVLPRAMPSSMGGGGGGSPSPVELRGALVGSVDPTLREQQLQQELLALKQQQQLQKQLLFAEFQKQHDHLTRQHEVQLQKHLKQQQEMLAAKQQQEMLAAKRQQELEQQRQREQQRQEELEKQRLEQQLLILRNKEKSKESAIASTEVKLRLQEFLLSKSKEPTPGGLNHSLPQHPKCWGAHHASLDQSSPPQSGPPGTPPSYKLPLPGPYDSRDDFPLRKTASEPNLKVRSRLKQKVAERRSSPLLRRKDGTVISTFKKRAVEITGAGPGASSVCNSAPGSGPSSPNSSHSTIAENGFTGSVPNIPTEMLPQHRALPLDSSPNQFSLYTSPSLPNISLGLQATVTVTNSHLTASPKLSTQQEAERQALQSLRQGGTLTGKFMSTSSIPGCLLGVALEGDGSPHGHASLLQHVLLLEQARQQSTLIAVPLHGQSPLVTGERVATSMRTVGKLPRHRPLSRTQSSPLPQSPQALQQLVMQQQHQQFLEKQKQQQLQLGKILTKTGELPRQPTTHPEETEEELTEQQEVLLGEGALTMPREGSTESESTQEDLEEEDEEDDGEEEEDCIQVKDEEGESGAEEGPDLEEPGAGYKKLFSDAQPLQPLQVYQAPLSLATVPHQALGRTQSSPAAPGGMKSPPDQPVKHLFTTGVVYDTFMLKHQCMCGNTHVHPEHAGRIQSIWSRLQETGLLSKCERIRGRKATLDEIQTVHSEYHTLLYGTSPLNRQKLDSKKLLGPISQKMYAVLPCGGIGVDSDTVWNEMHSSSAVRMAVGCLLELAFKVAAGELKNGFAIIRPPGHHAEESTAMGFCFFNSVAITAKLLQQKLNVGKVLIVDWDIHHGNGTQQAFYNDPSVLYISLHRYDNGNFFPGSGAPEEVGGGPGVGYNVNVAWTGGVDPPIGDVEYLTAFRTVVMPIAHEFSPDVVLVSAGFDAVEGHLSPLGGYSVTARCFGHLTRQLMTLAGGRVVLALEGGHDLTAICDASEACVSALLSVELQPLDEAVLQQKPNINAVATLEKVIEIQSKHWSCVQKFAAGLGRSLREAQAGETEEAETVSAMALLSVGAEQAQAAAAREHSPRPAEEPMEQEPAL

[2] = molecular target: T2, HDAC1 (Homo sapiens, UniProt Q13547); format: biochemical; conditions: HDAC isoform 1; 2 μM FAM-labeled acetylated peptide substrate, 60 min, room temperature
T2 construct: purchased BPS Bioscience
T2 sequence (Q13547 whole entry, canonical isoform): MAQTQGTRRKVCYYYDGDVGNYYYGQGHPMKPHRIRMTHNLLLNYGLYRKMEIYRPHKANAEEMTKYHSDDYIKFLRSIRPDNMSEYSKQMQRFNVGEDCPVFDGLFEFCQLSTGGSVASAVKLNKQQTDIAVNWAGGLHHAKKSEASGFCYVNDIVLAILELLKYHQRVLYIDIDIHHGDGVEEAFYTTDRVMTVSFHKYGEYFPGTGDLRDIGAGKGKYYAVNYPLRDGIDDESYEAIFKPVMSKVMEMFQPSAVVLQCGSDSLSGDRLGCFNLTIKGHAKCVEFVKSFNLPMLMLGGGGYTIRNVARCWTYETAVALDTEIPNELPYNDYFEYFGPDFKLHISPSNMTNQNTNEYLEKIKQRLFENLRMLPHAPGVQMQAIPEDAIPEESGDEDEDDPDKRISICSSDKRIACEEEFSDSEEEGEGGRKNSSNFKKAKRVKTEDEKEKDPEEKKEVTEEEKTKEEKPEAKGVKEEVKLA

[3] = molecular target: T3, HDAC2 (Homo sapiens, UniProt Q92769); format: biochemical; conditions: HDAC isoform 2; 2 μM FAM-labeled acetylated peptide substrate, 60 min, room temperature
T3 construct: purchased BPS Bioscience
T3 sequence (Q92769 whole entry, canonical isoform): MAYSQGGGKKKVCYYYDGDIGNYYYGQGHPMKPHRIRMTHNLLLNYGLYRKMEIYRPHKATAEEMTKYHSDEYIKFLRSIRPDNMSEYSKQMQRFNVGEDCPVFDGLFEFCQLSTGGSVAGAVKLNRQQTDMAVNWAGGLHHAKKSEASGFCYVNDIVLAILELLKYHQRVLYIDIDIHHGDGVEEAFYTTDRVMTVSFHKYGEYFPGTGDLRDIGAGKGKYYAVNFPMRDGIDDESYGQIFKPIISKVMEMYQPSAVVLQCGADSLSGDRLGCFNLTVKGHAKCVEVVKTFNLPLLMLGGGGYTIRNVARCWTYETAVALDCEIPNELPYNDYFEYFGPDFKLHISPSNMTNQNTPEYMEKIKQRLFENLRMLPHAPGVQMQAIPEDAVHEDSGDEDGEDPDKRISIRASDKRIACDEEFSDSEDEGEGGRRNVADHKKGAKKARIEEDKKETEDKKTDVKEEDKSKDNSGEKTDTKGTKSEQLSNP

[4] = molecular target: T4, HDAC8 (Homo sapiens, UniProt Q9BY41); format: biochemical; conditions: HDAC isoform 8; 2 μM FAM-labeled acetylated peptide substrate, 60 min, room temperature
T4 construct: purchased BPS Bioscience
T4 sequence (Q9BY41 1-377): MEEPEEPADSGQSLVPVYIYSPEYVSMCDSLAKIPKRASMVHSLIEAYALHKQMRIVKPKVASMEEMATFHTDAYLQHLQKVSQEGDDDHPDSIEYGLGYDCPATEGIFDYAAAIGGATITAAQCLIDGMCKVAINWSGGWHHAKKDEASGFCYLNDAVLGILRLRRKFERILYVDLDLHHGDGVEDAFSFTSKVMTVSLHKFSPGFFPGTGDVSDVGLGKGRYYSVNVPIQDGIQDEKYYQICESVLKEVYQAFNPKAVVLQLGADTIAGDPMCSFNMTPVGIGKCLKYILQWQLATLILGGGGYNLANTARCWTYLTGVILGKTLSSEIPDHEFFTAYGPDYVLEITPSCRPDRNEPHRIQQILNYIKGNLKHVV

[5] = molecular target: T5, HDAC9 (Homo sapiens, UniProt Q9UKV0); format: biochemical; conditions: HDAC isoform 9; 2 μM FAM-labeled acetylated peptide substrate, 60 min, room temperature
T5 construct: purchased BPS Bioscience
T5 sequence (Q9UKV0 whole entry, canonical isoform): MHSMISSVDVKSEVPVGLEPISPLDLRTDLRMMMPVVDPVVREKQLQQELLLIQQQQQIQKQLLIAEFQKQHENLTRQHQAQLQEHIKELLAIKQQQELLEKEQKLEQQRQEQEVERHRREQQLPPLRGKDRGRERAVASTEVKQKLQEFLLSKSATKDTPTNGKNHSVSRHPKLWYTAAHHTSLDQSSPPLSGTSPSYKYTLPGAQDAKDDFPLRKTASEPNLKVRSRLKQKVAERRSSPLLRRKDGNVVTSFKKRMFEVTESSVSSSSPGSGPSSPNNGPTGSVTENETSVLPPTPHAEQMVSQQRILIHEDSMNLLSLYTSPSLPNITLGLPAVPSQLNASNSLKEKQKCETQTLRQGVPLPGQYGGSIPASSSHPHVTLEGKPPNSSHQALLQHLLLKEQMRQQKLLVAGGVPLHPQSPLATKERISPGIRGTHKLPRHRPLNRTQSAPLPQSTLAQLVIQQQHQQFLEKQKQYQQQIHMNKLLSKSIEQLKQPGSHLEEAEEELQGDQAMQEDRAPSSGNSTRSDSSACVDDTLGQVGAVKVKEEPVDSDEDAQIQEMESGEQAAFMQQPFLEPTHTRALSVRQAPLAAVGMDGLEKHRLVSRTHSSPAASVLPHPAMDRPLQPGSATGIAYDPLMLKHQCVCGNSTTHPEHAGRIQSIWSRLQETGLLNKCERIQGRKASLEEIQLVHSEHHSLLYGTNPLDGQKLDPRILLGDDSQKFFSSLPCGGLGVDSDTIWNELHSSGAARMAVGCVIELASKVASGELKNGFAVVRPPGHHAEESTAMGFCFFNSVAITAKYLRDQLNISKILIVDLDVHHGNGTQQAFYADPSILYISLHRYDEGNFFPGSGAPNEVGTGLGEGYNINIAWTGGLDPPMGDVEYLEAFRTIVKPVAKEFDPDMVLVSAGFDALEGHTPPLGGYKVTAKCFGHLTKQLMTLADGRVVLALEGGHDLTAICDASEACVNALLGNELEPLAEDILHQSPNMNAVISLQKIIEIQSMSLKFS

[6] = molecular target: T6, HDAC3 (Homo sapiens, UniProt O15379); format: biochemical; conditions: HDAC isoform 3; 2 μM FAM-labeled acetylated peptide substrate, 60 min, room temperature
T6 construct: purchased BPS Bioscience
T6 sequence (O15379 whole entry, canonical isoform): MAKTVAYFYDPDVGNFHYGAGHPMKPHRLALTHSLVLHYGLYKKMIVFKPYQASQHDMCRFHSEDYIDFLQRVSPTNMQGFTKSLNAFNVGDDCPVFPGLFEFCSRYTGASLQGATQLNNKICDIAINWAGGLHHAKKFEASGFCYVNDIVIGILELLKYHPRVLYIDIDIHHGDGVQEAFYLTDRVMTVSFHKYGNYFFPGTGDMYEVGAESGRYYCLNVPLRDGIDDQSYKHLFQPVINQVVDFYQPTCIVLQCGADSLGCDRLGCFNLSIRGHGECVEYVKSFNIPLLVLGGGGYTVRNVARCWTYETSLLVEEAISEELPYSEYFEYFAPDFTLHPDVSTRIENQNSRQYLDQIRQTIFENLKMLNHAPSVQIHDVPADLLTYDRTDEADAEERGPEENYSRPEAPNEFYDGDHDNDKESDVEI
T6 sequence (Q9Y618 395-489 partner limits assumed): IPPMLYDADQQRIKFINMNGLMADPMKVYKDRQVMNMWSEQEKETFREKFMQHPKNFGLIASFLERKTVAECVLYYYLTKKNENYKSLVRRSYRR

[7] = molecular target: T7, HDAC6 (Homo sapiens, UniProt Q9UBN7); format: biochemical; conditions: HDAC isoform 6; 2 μM FAM-labeled acetylated peptide substrate, 60 min, room temperature
T7 construct: purchased BPS Bioscience
T7 sequence (Q9UBN7 1-1215): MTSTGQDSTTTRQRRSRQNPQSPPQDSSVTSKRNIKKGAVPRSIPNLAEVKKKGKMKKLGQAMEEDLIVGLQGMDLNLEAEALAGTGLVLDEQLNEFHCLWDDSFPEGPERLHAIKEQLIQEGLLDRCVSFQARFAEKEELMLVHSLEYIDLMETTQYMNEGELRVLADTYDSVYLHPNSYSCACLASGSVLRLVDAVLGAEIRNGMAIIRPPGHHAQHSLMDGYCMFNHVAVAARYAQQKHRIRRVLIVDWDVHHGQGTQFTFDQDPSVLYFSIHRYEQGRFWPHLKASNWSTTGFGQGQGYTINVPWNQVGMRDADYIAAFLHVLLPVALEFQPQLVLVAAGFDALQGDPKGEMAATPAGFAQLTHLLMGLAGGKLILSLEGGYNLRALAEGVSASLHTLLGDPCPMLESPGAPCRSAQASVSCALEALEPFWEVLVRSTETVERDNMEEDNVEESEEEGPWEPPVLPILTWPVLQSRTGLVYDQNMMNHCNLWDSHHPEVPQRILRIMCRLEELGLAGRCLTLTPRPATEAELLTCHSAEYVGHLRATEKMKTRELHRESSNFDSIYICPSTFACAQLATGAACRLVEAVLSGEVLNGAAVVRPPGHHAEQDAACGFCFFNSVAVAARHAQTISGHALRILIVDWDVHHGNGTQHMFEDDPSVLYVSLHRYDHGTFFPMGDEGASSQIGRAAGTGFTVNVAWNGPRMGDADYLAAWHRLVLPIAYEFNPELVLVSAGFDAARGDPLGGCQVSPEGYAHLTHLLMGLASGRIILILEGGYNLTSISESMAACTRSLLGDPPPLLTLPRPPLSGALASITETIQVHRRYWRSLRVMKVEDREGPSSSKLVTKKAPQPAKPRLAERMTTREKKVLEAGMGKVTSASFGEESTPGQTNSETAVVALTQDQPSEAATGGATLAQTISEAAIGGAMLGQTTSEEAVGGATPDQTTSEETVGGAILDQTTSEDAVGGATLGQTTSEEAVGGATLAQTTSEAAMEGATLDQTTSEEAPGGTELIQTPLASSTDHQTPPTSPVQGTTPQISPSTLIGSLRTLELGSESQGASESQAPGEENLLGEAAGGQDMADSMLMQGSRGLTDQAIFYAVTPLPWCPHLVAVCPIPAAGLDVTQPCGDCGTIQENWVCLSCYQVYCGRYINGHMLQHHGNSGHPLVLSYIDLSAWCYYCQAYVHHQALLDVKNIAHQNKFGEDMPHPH

[8] = molecular target: HDAC4 (Homo sapiens, UniProt P56524)
HDAC4, sequence (P56524 whole entry, canonical isoform): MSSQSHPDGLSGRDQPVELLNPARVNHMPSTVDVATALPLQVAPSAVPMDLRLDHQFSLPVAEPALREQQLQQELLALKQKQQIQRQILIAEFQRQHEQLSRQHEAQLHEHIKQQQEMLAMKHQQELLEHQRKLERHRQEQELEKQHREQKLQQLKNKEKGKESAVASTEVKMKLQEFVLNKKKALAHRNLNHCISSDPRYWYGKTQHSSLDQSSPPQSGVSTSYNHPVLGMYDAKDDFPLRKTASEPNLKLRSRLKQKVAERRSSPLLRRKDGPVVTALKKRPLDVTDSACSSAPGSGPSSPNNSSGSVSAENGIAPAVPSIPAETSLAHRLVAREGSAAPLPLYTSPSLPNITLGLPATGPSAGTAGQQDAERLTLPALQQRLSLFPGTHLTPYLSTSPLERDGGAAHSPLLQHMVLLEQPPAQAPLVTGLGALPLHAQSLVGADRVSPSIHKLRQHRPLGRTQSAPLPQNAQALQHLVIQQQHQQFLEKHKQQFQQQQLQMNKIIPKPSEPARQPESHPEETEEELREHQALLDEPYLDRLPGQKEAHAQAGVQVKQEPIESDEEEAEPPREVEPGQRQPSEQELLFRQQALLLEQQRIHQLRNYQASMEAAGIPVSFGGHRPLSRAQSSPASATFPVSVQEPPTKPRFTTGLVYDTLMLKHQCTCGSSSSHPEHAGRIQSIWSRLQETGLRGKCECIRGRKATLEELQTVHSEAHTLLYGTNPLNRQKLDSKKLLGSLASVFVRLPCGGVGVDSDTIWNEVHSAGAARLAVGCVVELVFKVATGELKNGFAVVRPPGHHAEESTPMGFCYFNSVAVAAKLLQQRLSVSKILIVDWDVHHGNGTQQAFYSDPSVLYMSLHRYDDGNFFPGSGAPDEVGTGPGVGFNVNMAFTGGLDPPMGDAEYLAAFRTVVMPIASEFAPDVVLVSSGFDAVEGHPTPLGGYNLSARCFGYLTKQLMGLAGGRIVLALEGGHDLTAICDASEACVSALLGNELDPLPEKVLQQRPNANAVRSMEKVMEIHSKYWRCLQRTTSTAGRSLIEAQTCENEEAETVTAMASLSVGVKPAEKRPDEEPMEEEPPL
Procedure: The following microfluidic lab-on-a-chip assay as described herein was used to assay the compounds of the invention.
All HDACs were purchased from BPS Bioscience. All other reagents were purchased from Sigma. Caliper EZ reader II system was used to collect all the data.
In short, purified HDACs were incubated with 2 μM carboxyfluorescein (FAM)-labeled acetylated peptide substrate and test compound for 60 min at room temperature, in HDAC assay buffer that contained 50 mM HEPES (pH 7.4), 100 mM KCl, 0.01% BSA and 0.001% Tween-20. […] Substrate and product were separated electrophoretically and fluorescence intensity in the substrate and product peaks was determined and analyzed by Labchip EZ Reader. The reactions were performed in duplicate for each sample. IC50 values were automatically calculated by Origion8 using 4 Parameter Logistic Model. The percent inhibition was plotted against the compound concentration, and the IC50 value was determined from the logistic dose-response curve fitting by Origin 8.0 software.

[9] = molecular target: T8, HDAC7 (Homo sapiens, UniProt Q8WUI4); format: biochemical; conditions: HDAC isoform 7; 2 μM FAM-labeled acetylated peptide substrate, 60 min, room temperature
T8 construct: purchased BPS Bioscience
T8 sequence (Q8WUI4 1-952): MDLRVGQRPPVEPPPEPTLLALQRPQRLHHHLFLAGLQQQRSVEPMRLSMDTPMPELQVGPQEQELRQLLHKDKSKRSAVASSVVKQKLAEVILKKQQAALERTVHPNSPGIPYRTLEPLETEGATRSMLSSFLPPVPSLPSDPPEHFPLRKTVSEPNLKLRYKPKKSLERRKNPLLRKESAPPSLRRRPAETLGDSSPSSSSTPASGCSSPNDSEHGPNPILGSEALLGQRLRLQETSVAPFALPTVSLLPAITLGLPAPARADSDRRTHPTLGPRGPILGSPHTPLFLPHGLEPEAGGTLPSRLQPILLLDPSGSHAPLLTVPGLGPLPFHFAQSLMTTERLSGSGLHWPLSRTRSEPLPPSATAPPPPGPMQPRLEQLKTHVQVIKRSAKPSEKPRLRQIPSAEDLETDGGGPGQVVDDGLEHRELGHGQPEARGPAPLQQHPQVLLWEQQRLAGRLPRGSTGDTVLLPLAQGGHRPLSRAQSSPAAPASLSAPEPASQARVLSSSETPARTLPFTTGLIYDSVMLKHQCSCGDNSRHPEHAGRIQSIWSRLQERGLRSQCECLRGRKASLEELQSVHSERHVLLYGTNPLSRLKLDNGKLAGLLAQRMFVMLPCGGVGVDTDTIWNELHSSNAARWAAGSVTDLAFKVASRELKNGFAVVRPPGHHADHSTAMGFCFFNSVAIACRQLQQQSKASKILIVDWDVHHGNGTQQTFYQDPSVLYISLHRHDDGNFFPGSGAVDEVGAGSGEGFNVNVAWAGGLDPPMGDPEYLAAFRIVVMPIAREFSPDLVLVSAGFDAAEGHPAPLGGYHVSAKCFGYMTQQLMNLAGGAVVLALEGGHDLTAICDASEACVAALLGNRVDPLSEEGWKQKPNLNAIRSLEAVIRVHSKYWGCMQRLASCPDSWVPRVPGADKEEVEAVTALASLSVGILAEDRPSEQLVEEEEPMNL

Compound	IC50 [1]	IC50 [2]	IC50 [3]	IC50 [4]	IC50 [5]	IC50 [6]	IC50 [7]	IC50 [8]	IC50 [9]
COc1ccc(CNC2C=C(C(=O)NO)CCC2)cc1 (stereo not shown) [Compound 7A, N-Hydroxy-3-((4-Methoxybenzyl)Amino)Cyclohex-1-Enecarboxamide]	> 33 µM	> 33 µM	> 33 µM	2.16 µM	> 33 µM	> 33 µM	2.68 µM	> 33 µM	> 33 µM
O=C(NO)C1=CC(Sc2ccccc2)CCC1 (stereo not shown) [Compound 10A, N-Hydroxy-3-(Phenylthio)Cyclohex-1-Enecarboxamide]	10.9 µM	2.1 µM	1.7 µM	0.055 µM	16 µM	3.22 µM	0.106 µM	7.93 µM	6.91 µM
COc1ccc(C(=O)N2CCC=C(C(=O)NO)C2)cc1 [Compound 12A]	> 33 µM	> 33 µM	> 33 µM	23.2 µM	> 33 µM	> 33 µM	6.2 µM	> 33 µM	> 33 µM
O=C(NO)C1=CCCCC1 [Compound 19A, N-Hydroxycyclohex-1-Enecarboxamide]	15.2 µM	0.423 µM	1.4 µM	0.523 µM	11.7 µM	0.493 µM	0.011 µM	10.1 µM	2.32 µM
O=C(NO)C1=CCOCC1 [Compound 20A, N-Hydroxy-3,6-Dihydro-2H-Pyran-4-Carboxamide]	–	1.08 µM	1.9 µM	1.38 µM	> 33 µM	1.4 µM	0.016 µM	> 33 µM	26.8 µM
O=C(NO)C1=CCCC1 [Compound 21A, N-Hydroxycyclopent-1-Enecarboxamide]	21.1 µM	0.727 µM	3.44 µM	1.85 µM	> 33 µM	0.734 µM	0.024 µM	29.7 µM	–
O=C(NO)C1=C[C@@H](O)[C@@H](O)[C@H](O)C1 [Compound 22A, (3R,4S,5R)-N,3,4,5-Tetrahydroxycyclohex-1-Enecarboxamide]	> 33 µM	> 33 µM	> 33 µM	9.14 µM	> 33 µM	> 33 µM	> 33 µM	> 33 µM	> 33 µM
CC1=C(C(=O)NO)Cc2ccccc21 [Compound 29A, N-Hydroxy-3-Methyl-1H-Indene-2-Carboxamide]	23.6 µM	0.275 µM	0.584 µM	1.13 µM	11.2 µM	0.713 µM	0.049 µM	16 µM	17.9 µM
CN1CCC=C(C(=O)NO)C1 [Compound 30A, N-Hydroxy-1-Methyl-1,2,5,6-Tetrahydropyridine-3-Carboxamide]	> 33 µM	> 33 µM	> 33 µM	2.63 µM	> 33 µM	> 33 µM	> 33 µM	> 33 µM	> 33 µM
Cc1ccc(S(=O)(=O)N2CC=C(C(=O)NO)CC2)cc1 [Compound 31A, N-Hydroxy-1-Tosyl-1,2,3,6-Tetrahydropyridine-4-Carboxamide]	7.41 µM	0.084 µM	0.375 µM	0.494 µM	13 µM	0.099 µM	0.014 µM	14.8 µM	11.6 µM
O=C(NO)C1=Cc2ccccc2CC1 [Compound 32A, N-Hydroxy-3,4-Dihydronaphthalene-2-Carboxamide]	14 µM	1.86 µM	2.6 µM	0.626 µM	4.08 µM	2.32 µM	0.014 µM	4.65 µM	2.46 µM
